Source: patent US6472175B1, “Sialylation of N-linked glycoproteins in the baculovirus expression vector system” (Boyce Thompson Institute For Plant Research, Inc., priority 1999, dated 2002)

Assays:
[1] = test system: Tn-4h Insect Tissue Culture Cells; assay: Measurement of total cellular sialic acid (colorimetric assay) in Tn-4h insect tissue culture cells; type: cell-based, Trichoplusia ni
From the text: Since substrate levels can affect sialylation, it was hypothesized that the microgravity-mediated sialylation might have resulted from an increase in substrate availability. […] This hypothesis was investigated further by comparing the concentration of sialic acid in cells grown in T-flasks and in HARV bioreactors.

Tn-4h cells = assay: Sialylation of baculovirus-expressed SEAP N-linked glycans, normal phase HPLC of 2-AB-labeled glycans; type: cell-based, Trichoplusia ni; conditions: normal gravity
Method: Once the SEAP protein is purified, the oligosaccharide moieties are cleaved from the glycoprotein with peptide N-glycosidase F (cleaves oligomannose, hybrid and complex oligosaccharides with or without terminal sialic acid residues). The oligosaccharides are then bonded to a fluorophore marker. The labeled sugar can be digested with various glycosidases that cleave specific linkages. The samples are analyzed by HPLC. Normal phase HPLC fractionations are carried out with a 50 mM ammonium phosphate, pH 4.4, and acetonitrile gradient on a Glyco Sep-N column (OGS, Oxford, UK) by a technique being known in the art, and incorporated by reference (Guile et al., 1996; Mattu et al., 1998). The Glyco Sep-N column is capable of resolving both neutral and charged sugar residues based on hydrophilicity (related to the hydrodynamic volume and molecular size). To obtain accurate glucose equivalency values, the GlycoSep-N is calibrated with a 2-aminobenzamide (2-AB) labeled dextran hydrolysate ladder and glucose homopolymers. The 2-AB fluorescence is detected and quantified using a Waters^a 474 Scanning Fluorescence Detector (Waters Corporation, MA) at λex 330 nm and λcm 420 nm using a 16 μl flow cell.
Since substrate levels can affect sialylation, it was hypothesized that the microgravity-mediated sialylation might have resulted from an increase in substrate availability. […]

mammalian (CHO) cells = conditions: cited from earlier work

In the case of `CC(=O)N[C@@H]1C(O)O[C@H](CO)[C@@H](O)[C@@H]1O` (stereo partly shown) [ManNAc, N-acetylmannosamine], the “change of sialic acid level, infected cells” value ([1]; addition to culture medium, infected Tn-4h cells) is reported as “not infected cells”, the “change of sialic acid level, uninfected cells” value ([1]; addition to culture medium, uninfected Tn-4h cells) is reported as “increased the levels of sialic acid in uninfected cells” and the “nMoles Sialic Acid per mg Cell Protein, Infected” value ([1]; baculovirus infected Tn-4h cells, T-flask, medium supplemented with 5 mM ManNAc) is reported as 98 ± 9 nMoles Sialic Acid per mg Cell Protein. For the same compound, the “nMoles Sialic Acid per mg Cell Protein, Uninfected” value ([1]; uninfected Tn-4h cells, T-flask, medium supplemented with 5 mM ManNAc) was 62 ± 7 nMoles Sialic Acid per mg Cell Protein, the “sialylated SEAP glycans identified” value (Tn-4h cells; 5 mM in medium, stationary T-flasks, Tn-4h cells) was “five sialylated SEAP glycans were identified” and the “induction of complex, sialylated glycans on a secreted human glycoprotein” value (Tn-4h cells; culture media supplemented, insect tissue culture cells) was “induced to produce complex, sialylated glycans”. The effect on sialylation (mammalian (CHO) cells) was “increase sialylation”.
